Data as given in patent US8871767B2, “2-arylimidazo[1,2-B]pyridazine, 2-phenylimidazo[1,2-A]pyridine, and 2-phenylimidazo[1,2-A]pyrazine derivatives” (Hengrui (USA) Ltd., priority 2010, dated 2014).

Test system: Hedgehog pathway activation (GLi-luciferase reporter) in Shh Light II reporter cells
Assay: Hedgehog pathway activation on Shh Light II reporter cells measured by luciferase activity
Assay type: cell-based
Details: Mus musculus, Shh Light II, hShh activation, read-out: Shh (IC50, inhibition of Hedgehog pathway activation)
Description: Hedgehog conditioned media was obtained by transfecting 293H cells with the full length gene encoding human Sonic Hedgehog (hShh) inserted into the pCMV6 expression vector, which contains a neomycin selectable marker and expresses the protein of interest with a C-terminal FLAG affinity tag. After selection in G418 containing media, conditioned media from Hedgehog expressing clones were tested for the ability to activate the hedgehog-responsive GLi-luciferase reporter in the Shh Light II cell line obtained by license from John Hopkins University (Taipale J, et al. Effects of oncogenic mutations in Smoothened and Patched can be reversed by cyclopamine. Nature 406: 1005-1009, 2000).
A test compound library was screened against hShh and 500 nM SAG (a direct agonist of the Smoothened receptor) activated 10T1/2/Smo#3 cells and Shh Light II reporter cells for the ability to block Hedgehog pathway activation. Concurrently, cell viability was measured by utilizing Celltiter-Blue® (Promega, Madison Wis.) viability assay. Active compounds were defined as those that inhibited Hedgehog signaling by greater than 50% with no concurrent loss in cell viability.
Their inhibitory activity against Hedgehog pathway activation on 10T1/2/Smo#3 cells as measured by ALP activity and Shh Light II reporter cells as measured by luciferase activity is shown in Table 1 below. In Table 1, +++ stands for an IC50 value that is less than 0.3 μM, ++ between 0.3 and 3 μM, + between 3 and 30 μM.
Additional data for compounds of the invention is shown below in Table 2. Their inhibitory activities against Hedgehog pathway activation are shown as IC50 values in μM on 10T1/2/Smo#3 cells as measured by ALP activity, or on Shh Light II reporter cells as measured by luciferase activity (hShh activation).

| Structure (SMILES) | IC50 [µM] |
| --- | --- |
| CC(=O)Nc1ncc(-c2ccc3nc(-c4ccc(C)c(NC(=O)C(C)(C)C)c4)cn3n2)s1 [Example 447, N-(5-(6-(2-acetamidothiazol-5-yl)imidazo[1,2-b]pyridazin-2-yl)-2-methylphenyl)pivalamide] | 0.293 |
| CNC(=O)c1ccccc1-c1ccc2nc(-c3ccc(C)c(NC(=O)C(C)(C)C)c3)cn2n1 [Example 452, N-methyl-2-(2-(4-methyl-3-pivalamidophenyl)imidazo[1,2-b]pyridazin-6-yl)benzamide] | 0.385 |
| Cc1ccc(-c2cn3nc(-c4ccc(OCCCCC(=O)NO)cc4C(F)(F)F)ccc3n2)cc1NC(=O)C(C)(C)C [Example 454, N-hydroxy-5-(4-(2-(4-methyl-3-pivalamidophenyl)imidazo[1,2-b]pyridazin-6-yl)-3-(trifluoromethyl)phenoxy)pentanamide] | 2.05 |
| Cc1ccc(-c2cn3nc(-c4ccc(OCC(=O)NO)cc4C(F)(F)F)ccc3n2)cc1NC(=O)C(C)(C)C [Example 455, N-(5-(6-(4-(2-(hydroxyamino)-2-oxoethoxy)-2-(trifluoromethyl)phenyl)imidazo[1,2-b]pyridazin-2-yl)-2-methylphenyl)pivalamide] | 3.46 |
| Cc1ccc(-c2cn3nc(-c4cc(C(F)(F)F)ccn4)ccc3n2)cc1NC(=O)C(C)(C)C [Example 456, N-(2-methyl-5-(6-(4-(trifluoromethyl)pyridin-2-yl)imidazo[1,2-b]pyridazin-2-yl)phenyl)pivalamide] | 0.365 |
| Cc1ccc(-c2cn3nc(-c4ccc(C(F)(F)F)cn4)ccc3n2)cc1NC(=O)C(C)(C)C [Example 457, N-(2-methyl-5-(6-(5-(trifluoromethyl)pyridin-2-yl)imidazo[1,2-b]pyridazin-2-yl)phenyl)pivalamide] | 0.334 |
| COc1cc(-c2ccc3nc(-c4ccc(C)c(NC(=O)C(C)(C)C)c4)cn3n2)ncc1C(=O)O [Example 461, 4-methoxy-6-(2-(4-methyl-3-pivalamidophenyl)imidazo[1,2-b]pyridazin-6-yl)nicotinic acid] | 8.39 |
| C[C@@H]1CNCCN1c1ccc2nc(-c3ccc(C(F)(F)F)c(NC(=O)C(C)(C)C)c3)cn2n1 [Example 466, (R)-N-(5-(6-(2-methylpiperazin-1-yl)imidazo[1,2-b]pyridazin-2-yl)-2-(trifluoromethyl)phenyl)pivalamide] | 2.02 |
| CC(C)(C)C(=O)Nc1cc(-c2cn3nc(N4CCC[C@@H]4CO)ccc3n2)ccc1C(F)(F)F [Example 469, (R)-N-(5-(6-(2-(hydroxymethyl)pyrrolidin-1-yl)imidazo[1,2-b]pyridazin-2-yl)-2-(trifluoromethyl)phenyl)pivalamide] | 0.339 |
| CCOC(=O)COc1cc(-c2ccc3nc(-c4ccc(C)c(NC(=O)C(C)(C)C)c4)cn3n2)cc(C(F)(F)F)n1 [Example 475, ethyl 2-(4-(2-(4-methyl-3-pivalamidophenyl)imidazo[1,2-b]pyridazin-6-yl)-6-(trifluoromethyl)pyridin-2-yloxy)acetate] | 2.61 |

The next lines start with the values.

| IC50 [µM] | Structure (SMILES) |
| --- | --- |
| 1.38 | COC(=O)c1csc(-c2ccc3nc(-c4ccc(C)c(NC(=O)C(C)(C)C)c4)cn3n2)n1 [Example 446, methyl 2-(2-(4-methyl-3-pivalamidophenyl)imidazo[1,2-b]pyridazin-6-yl)thiazole-4-carboxylate] |
| 0.421 | Cc1ccc(-c2cn3nc(-c4cccc(C(F)(F)F)n4)ccc3n2)cc1NC(=O)C(C)(C)C [Example 458, N-(2-methyl-5-(6-(6-(trifluoromethyl)pyridin-2-yl)imidazo[1,2-b]pyridazin-2-yl)phenyl)pivalamide] |
| 9.29 | Cc1ccc(-c2cn3nc(-c4ccc(C(=O)O)cn4)ccc3n2)cc1NC(=O)C(C)(C)C [Example 459, 6-(2-(4-methyl-3-pivalamidophenyl)imidazo[1,2-b]pyridazin-6-yl)nicotinic acid] |
| 1.12 | Cc1ccc(-c2cn3nc(-c4cccc(CO)n4)ccc3n2)cc1NC(=O)C(C)(C)C [Example 460, N-(5-(6-(6-(hydroxymethyl)pyridin-2-yl)imidazo[1,2-b]pyridazin-2-yl)-2-methylphenyl)pivalamide] |
